Test results: patent publication US6423545B1, “Unmarked deletion mutants of mycobacteria and methods of using same” (Albert Einstein College of Medicine of Yeshiva University, priority 1999, dated 2002)
Entries after “also recorded” stand apart in the source; their conditions may differ.

How the values were obtained:
[1] = test system: M. bovis BCG substrain Pasteur; format: cell-based, Mycobacterium bovis BCG
M. tuberculosis H37Rv = format: cell-based, Mycobacterium tuberculosis
E. coli = details: AEC alone; cited from earlier work
C. glutamicum = details: AEC alone versus with threonine; cited from earlier work
aspartokinase = details: enzyme of the first step of the aspartate amino acid family pathway; cited from earlier work

## NCCSC[C@H](N)C(=O)O [AEC, S-(β-aminoethyl)-L-cysteine]
[1]
  inhibitory effect upon growth: neither AEC or Thr alone have an inhibitory effect; also recorded: the combination of the two does inhibit growth, with BCG experiencing the greatest inhibition
M. tuberculosis H37Rv
  inhibitory effect upon growth: neither AEC or Thr alone have an inhibitory effect; also recorded: the combination of the two does inhibit growth
E. coli
  inhibition of growth: capable of inhibiting the growth of E. coli
C. glutamicum
  inhibition of growth: requires the addition of threonine to inhibit the growth of C. glutamicum
aspartokinase
  inhibition of aspartokinase: inhibits aspartokinase

## C[C@@H](O)[C@H](N)C(=O)O [Thr, threonine]
[1]
  inhibitory effect upon growth: neither AEC or Thr alone have an inhibitory effect
M. tuberculosis H37Rv
  inhibitory effect upon growth: neither AEC or Thr alone have an inhibitory effect
